From PubChem BioAssay AID248 (DTP/NCI, 2004)
“And” between values parts separate entries of the source, which are not always exact repeats. Equal entries are not always repeated. Toxic doses and inconclusive results are not listed. Rule as the data show it: active = T/C of 150% or more; inactive = T/C below 125%.

Test system: L1210 leukemia ip in BDF1 mice, survival T/C
Experiment: NCI In Vivo Anticancer Drug Screen. Data for tumor model L1210 Leukemia (intraperitoneal) in B6D2F1 (BDF1) mice
Settings: endpoint: mean survival time, higher = longer survival
In short: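 Read-out is survival time, reported as the treated-group measurement over the vehicle-control measurement.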

[1] = dose: 100.0 mg/kg/injection, schedule: Q04DX002 (ip), vehicle: Klucel (hydroxypropylcellulose) (HPC)
[2] = dose: 200.0 mg/kg/injection, schedule: Q04DX002 (ip), vehicle: Klucel (hydroxypropylcellulose) (HPC)
[3] = dose: 400.0 mg/kg/injection, schedule: Q04DX002 (ip), vehicle: Klucel (hydroxypropylcellulose) (HPC)
[4] = dose: 100.0 mg/kg/injection, schedule: Q04DX003 (ip), vehicle: saline with Tween-80
[5] = dose: 200.0 mg/kg/injection, schedule: Q04DX003 (ip), vehicle: saline with Tween-80
[6] = dose: 400.0 mg/kg/injection, schedule: Q04DX003 (ip), vehicle: saline with Tween-80
[7] = dose: 100.0 mg/kg/injection, schedule: Q01DX009 (ip), vehicle: saline with Tween-80
[8] = dose: 200.0 mg/kg/injection, schedule: Q01DX009 (ip), vehicle: saline with Tween-80
[9] = dose: 400.0 mg/kg/injection, schedule: Q01DX009 (ip), vehicle: saline with Tween-80
[10] = dose: 100.0 mg/kg/injection, schedule: Q01DX009 (ip), vehicle: Klucel (hydroxypropylcellulose) (HPC)
[11] = dose: 100.0 mg/kg/injection, schedule: Q04DX003 (ip), vehicle: Klucel (hydroxypropylcellulose) (HPC)
[12] = dose: 200.0 mg/kg/injection, schedule: Q01DX009 (ip), vehicle: Klucel (hydroxypropylcellulose) (HPC)
[13] = dose: 200.0 mg/kg/injection, schedule: Q04DX003 (ip), vehicle: Klucel (hydroxypropylcellulose) (HPC)
[14] = dose: 400.0 mg/kg/injection, schedule: Q01DX009 (ip), vehicle: Klucel (hydroxypropylcellulose) (HPC)
[15] = dose: 400.0 mg/kg/injection, schedule: Q04DX003 (ip), vehicle: Klucel (hydroxypropylcellulose) (HPC)
[16] = dose: 50.0 mg/kg/injection, schedule: Q01DX009 (ip), vehicle: Klucel (hydroxypropylcellulose) (HPC)
[17] = dose: 100.0 mg/kg/injection, schedule: Q01DX001 (ip), vehicle: carboxymethylcellulose (CMC)
[18] = dose: 100.0 mg/kg/injection, schedule: Q04DX002 (ip), vehicle: saline with Tween-80
[19] = dose: 200.0 mg/kg/injection, schedule: Q04DX002 (ip), vehicle: saline with Tween-80
[20] = dose: 400.0 mg/kg/injection, schedule: Q04DX002 (ip), vehicle: saline with Tween-80
[21] = dose: 100.0 mg/kg/injection, schedule: Q01DX001 (ip), vehicle: saline with Tween-80
[22] = dose: 200.0 mg/kg/injection, schedule: Q01DX001 (ip), vehicle: saline with Tween-80
[23] = dose: 400.0 mg/kg/injection, schedule: Q01DX001 (ip), vehicle: saline with Tween-80
[24] = dose: 100.0 mg/kg/injection, schedule: Q01DX001 (ip), vehicle: saline
[25] = dose: 200.0 mg/kg/injection, schedule: Q01DX001 (ip), vehicle: saline
[26] = dose: 400.0 mg/kg/injection, schedule: Q01DX001 (ip), vehicle: saline
[27] = dose: 50.0 mg/kg/injection, schedule: Q01DX001 (ip), vehicle: Klucel (hydroxypropylcellulose) (HPC)
[28] = dose: 100.0 mg/kg/injection, schedule: Q01DX001 (ip), vehicle: Klucel (hydroxypropylcellulose) (HPC)
[29] = dose: 200.0 mg/kg/injection, schedule: Q01DX001 (ip), vehicle: Klucel (hydroxypropylcellulose) (HPC)

Measured: T/C

O=[N+]([O-])c1ccc(-n2ccnc2)c([N+](=O)[O-])c1
inactive: [1] 100 % of control | [2] 100 % of control | [3] 93 % of control

C/C(=N/N)c1ccccc1O
inactive: dose: 25.6 mg/kg/injection, schedule: Q04DX002 (ip), vehicle: saline 88 % of control | dose: 160.0 mg/kg/injection, schedule: Q04DX002 (ip), vehicle: saline 92 % of control

COc1ccccc1-n1c(C)nc2c1C(=O)c1ccccc1C2=O
inactive: [4] 96 % of control | [5] 93 % of control | [6] 96 % of control

Cc1ccccc1[P+](Cc1ccccc1)(c1ccccc1)c1ccccc1C
inactive: dose: 15.0 mg/kg/injection, schedule: Q01DX001 (ip), vehicle: saline 104 % of control

FC1(F)SC2C3CCC(C3)C2C1(F)F (stereo not drawn)
inactive: dose: 6.25 mg/kg/injection, schedule: Q04DX002 (ip), vehicle: saline with Tween-80 95 % of control | dose: 12.5 mg/kg/injection, schedule: Q04DX002 (ip), vehicle: saline with Tween-80 95 % of control | dose: 25.0 mg/kg/injection, schedule: Q04DX002 (ip), vehicle: saline with Tween-80 93 % of control

COC(=O)CNC(=O)C(Cc1ccc(OCc2ccccc2)cc1)NC=O (stereo not drawn)
inactive: [7] 89 % of control | [4] 105 % of control | [8] 90 % of control | [5] 100 % of control | [9] 90 % of control | [6] 102 % of control

O=C(c1ccccc1)C1C(C(=O)c2ccccc2)N1Cc1ccccc1 (stereo not drawn)
inactive: [10] 100 % of control | [11] 96 % of control and 93 % of control | [12] 101 % of control | [13] 96 % of control and 91 % of control | [14] 97 % of control | [15] 93 % of control and 100 % of control

COc1ccc([N+](=O)[O-])cc1NC(=O)Nc1ccccc1C(N)=O
inactive: [16] 105 % of control | [10] 101 % of control | [12] 97 % of control

O=S(=O)(CS(=O)(=O)Oc1ccccc1)Oc1ccccc1
inactive: [17] 93 % of control | dose: 200.0 mg/kg/injection, schedule: Q01DX001 (ip), vehicle: carboxymethylcellulose (CMC) 102 % of control | dose: 400.0 mg/kg/injection, schedule: Q01DX001 (ip), vehicle: carboxymethylcellulose (CMC) 93 % of control

CC1CC(C)OC2(CCCc3ccccc32)O1 (stereo not drawn)
inactive: [18] 104 % of control | [19] 100 % of control | [20] 104 % of control

Cc1ccc(C(C)(O)c2cnc(C)n2Cc2ccccc2)cc1 (stereo not drawn)
inactive: [21] 97 % of control | [7] 95 % of control and 113 % of control | [18] 110 % of control and 92 % of control | [4] 101 % of control | [22] 97 % of control | [8] 98 % of control and 102 % of control | [19] 95 % of control and 97 % of control | [5] 103 % of control | [23] 91 % of control | [9] 91 % of control and 92 % of control | [20] 103 % of control and 88 % of control | [6] 98 % of control

CC(=O)OC1COC(NC(=O)NCCCl)C(OC(C)=O)C1OC(C)=O (stereo not drawn)
inactive: [11] 109 % of control | [13] 103 % of control | [15] 103 % of control

c1c[nH]c(N=Nc2ccc(-c3ccc(N=Nc4ncc[nH]4)cc3)cc2)n1
inactive: dose: 50.0 mg/kg/injection, schedule: Q01DX009 (ip), vehicle: saline with Tween-80 97 % of control | [7] 90 % of control | [8] 90 % of control

O=[N+]([O-])C1=C(c2ccccc2)C(c2ccccc2)(c2ccccc2)N=N1
inactive: [24] 100 % of control | [25] 90 % of control | [26] 88 % of control

CCOc1ccccc1NC(=O)COc1ccc(Cl)cc1
inactive: [10] 98 % of control | [11] 90 % of control | [12] 103 % of control | [13] 101 % of control | [14] 97 % of control | [15] 108 % of control

CC1(C)N=C(N)N=C(N)N1c1cccc(CC(C(=O)Nc2ccc(S(=O)(=O)F)cc2)c2ccccc2)c1 (stereo not drawn)
inactive: dose: 25.0 mg/kg/injection, schedule: Q01DX001 (ip), vehicle: Klucel (hydroxypropylcellulose) (HPC) 95 % of control | [27] 95 % of control | [28] 94 % of control and 95 % of control | [29] 101 % of control

C=CCC(CCCCCCCCCCCCC)C(=O)O (stereo not drawn)
inactive: [21] 96 % of control | [22] 105 % of control | [23] 101 % of control

CC12C3C(=O)NC45CCCC41C5(c1ccccc1)C32c1ccccc1 (stereo not drawn)
inactive: [28] 96 % of control | [29] 96 % of control | dose: 400.0 mg/kg/injection, schedule: Q01DX001 (ip), vehicle: Klucel (hydroxypropylcellulose) (HPC) 94 % of control

CN(C)CCC(C(=O)N(C)C)(c1ccccc1)c1ccccc1
inactive: dose: 75.0 mg/kg/injection, schedule: Q01DX001 (ip), vehicle: carboxymethylcellulose (CMC) 94 % of control | dose: 150.0 mg/kg/injection, schedule: Q01DX001 (ip), vehicle: carboxymethylcellulose (CMC) 97 % of control

CC1CC(NCCO)CC(C)(C)C1 (stereo not drawn)
inactive: dose: 75.0 mg/kg/injection, schedule: Q01DX001 (ip), vehicle: acid diluted with saline 122 % of control | dose: 150.0 mg/kg/injection, schedule: Q01DX001 (ip), vehicle: acid diluted with saline 100 % of control

CC(O)C(Cc1ccccc1)NC(=O)C(=O)NC(Cc1ccccc1)C(C)O (stereo not drawn)
inactive: [11] 95 % of control | [13] 90 % of control | [15] 92 % of control

CCP(CC)SC1OC(COC(C)=O)C(OC(C)=O)C(OC(C)=O)C1OC(C)=O (stereo not drawn)
inactive: [27] 102 % of control | [28] 101 % of control | [29] 98 % of control

CCCCCCCCCCCCCCCCS(=O)(=O)c1ccc(NN)cc1
inactive: [10] 89 % of control | [11] 97 % of control | [12] 91 % of control | [13] 98 % of control | [14] 90 % of control | [15] 105 % of control

O=C(Nc1cccc2cnccc12)c1ccc(C(=O)Nc2cccc3cnccc23)cc1
inactive: [24] 98 % of control | [25] 104 % of control | [26] 104 % of control

CN(CCCl)CC1C(c2ccccc2)C1c1ccccc1 (stereo not drawn)
inactive: dose: 25.0 mg/kg/injection, schedule: Q04DX002 (ip), vehicle: Klucel (hydroxypropylcellulose) (HPC) 103 % of control | dose: 50.0 mg/kg/injection, schedule: Q04DX002 (ip), vehicle: Klucel (hydroxypropylcellulose) (HPC) 111 % of control | [1] 107 % of control and 111 % of control

O=C(OCc1ccccc1CN1CCCC1)c1ccc(Br)cc1
inactive: [1] 111 % of control | [2] 90 % of control | [3] 96 % of control

CS(=O)(=O)Oc1cc(=O)oc2ccccc12
inactive: [16] 103 % of control | [10] 109 % of control

COc1ccc(-c2cc(C(=O)N/N=C/c3ccc([N+](=O)[O-])cc3)c3ccc(C)cc3n2)cc1OC
inactive: [5] 86 % of control | [6] 94 % of control

Cc1cncc(=O)[nH]1
inactive: [21] 98 % of control | [7] 96 % of control | [4] 104 % of control | [22] 98 % of control | [8] 100 % of control | [5] 111 % of control | [23] 102 % of control | [9] 91 % of control | [6] 98 % of control

O=C(CCCc1ccc(N(CCCl)CCCl)cc1)Nc1ccc(F)cc1
inactive: dose: 4.0 mg/kg/injection, schedule: Q12HX018 (ip), vehicle: other 103 % of control | dose: 6.0 mg/kg/injection, schedule: Q12HX018 (ip), vehicle: other 106 % of control | dose: 8.0 mg/kg/injection, schedule: Q12HX018 (ip), vehicle: other 104 % of control

Cc1cccc(/C=N\NC(=O)CCCC(=O)N/N=C/c2cccc(C)n2)n1
inactive: dose: 50.0 mg/kg/injection, schedule: Q01DX001 (ip), vehicle: carboxymethylcellulose (CMC) 88 % of control | [17] 90 % of control
